The record followed here is publication PMC7613620, “Reaction hijacking of tyrosine tRNA synthetase as a whole-of-life-cycle antimalarial strategy” (Science (New York, N.Y.), 2022).

As a reminder, the inhibition is the change of the read-out against control, counted positive when it falls. High values mean a strong effect, low ones a weak effect.

Test [1] deals with P. falciparum 3D7 clones selected with ML901 (D4, F7, B11). Put plainly: In vitro evolved ML901-resistant 3D7 clones, IC50_72h. The test is classed as cell-based, Plasmodium falciparum. The protocol: 537 Screening of nucleoside sulfamates for inhibition of the growth of cultures of P. falciparum (3D7).
538 High throughput screening of compounds from the Takeda library was performed by SCYNEXIS, Inc.
539 Jersey City, NJ, USA. Synchronized (5% sorbitol) ring stage parasites (3D7 strain; 1.5% haematocrit; 0.1
540 – 0.5% starting parasitemia) were incubated in 96-well plates, in triplicate, diluted in DMSO, for 72 h in
541 RPMI 1640 supplemented with 10% human serum, 5% CO2, 5% O2, 90% N2. Infected RBCs were lysed
542 with 10 mM Tris HCl, 5 mM EDTA, 0.008% saponin, 0.08% Triton X-100, pH 7.5, containing SYBR
543 Green. Following incubation for 15-60 min, fluorescence signal was assessed. Sigmoidal dose response
544 curves were generated and the IC50 values determined using CLfit curve fitting software from IDBS […]
549 stage parasites (3D7 strain (43)) were incubated with the inhibitors for 72 h and viability was assessed in […]
638 precipitated with acetonitrile and the remaining compound was assessed by LC-MS/MS in the selected reaction […]
648 0.5% formic acid in methanol and the supernatants were analysed by positive ion electrospray LC-MS for
649 the administered compound. Non-compartmental pharmacokinetic parameters were calculated from […]
660 IGM Genomics Center on the Illumina HiSeq 2500 in RapidRun mode to generate 100bp paired-end reads.

Test [2] has as its system P. falciparum male gametes. The test is described as follows: Dual gamete formation assay (male). The test is classed as cell-based. The settings on record: Plasmodium falciparum. Here is the method: 604 Activity against transmissible stages of P. falciparum
605 Activity against male gametes was assessed using the dual gamete formation assay (PfDGFA)(32).
606 Compounds were incubated with mature stage V gametocytes ([…], kind gift from Professor Chris Janse
607 at Leiden University Medical Center (LUMC), the Netherlands) for 48 hours in 384 well plates before
608 gamete formation was triggered by a drop in temperature and addition of xanthurenic acid. Male gamete
609 exflagellation was recorded and quantified by automated microscopy. The ability of female gametes to
611 Multiple data sets using different gametocyte cultures were collected on each of two separate days.
613 Activity against exoerythrocytic stages
614 Primary human hepatocytes (H1500.H15B+ Lot No. HC10-10 Cryopreserved human hepatocytes)
615 were cultured for 2 days and then overlaid with P. falciparum NF54 sporozoites and compounds.
616 Supernatant was refreshed daily with fresh compounds.

Another test relates to P. falciparum Dd2. Put plainly: 72-h sensitivity of wildtype Dd2 parent line. The test is classed as cell-based. The settings on record: Plasmodium falciparum, 72-h exposure. Here is the method: 700 the drug plate. Lowest drug treatment and a lethal dose of chloroquine (200 nM) served as reference
701 controls. Growth inhibition was analysed after 72 h using the Renilla-Glo(R) Luciferase Assay System (ref
702 no E2750 Promega) and the GloMax® Discover Multimode Microplate Reader (Promega), and IC50 values
703 were obtained from corrected dose-response curves using GraphPad Prism (version 8; GraphPad Software). […]
729 Cam 3.II_Rev (25) trophozoite-infected RBCs (25-30 h p.i.) were incubated with inhibitor for 3 h at 10%
730 hematocrit and 5% parasitemia. The RBC pellet was washed 3 x in PBS + cOmplete. Cells were centrifuged
731 at 380 x g for 5 min and the pelleted cells lysed by resuspension in PBS + 0.05% saponin for 5 min on ice.

For the next test, the system named is H1650. The test is described as follows: H1650 cell viability (ATP content). It is filed as cell-based. The settings on record: Homo sapiens, NCI-H1650, read-out: H1650 IC50(72h); 72 h; ATG7-null cell line. The protocol: 574 H1650 is a human lung cancer derived ATG7-null cell line (49) that can be used to assess effects on targets
576 adenocarcinoma; bronchoalveolar carcinoma). Other cells lines used are: H460 (NCI-H460; human lung;
577 carcinoma; large cell lung cancer; ATCC: HTB-177); and HCT116 (human colon; colorectal carcinoma;
578 ATCC: CCL-247; Lot : 5056139). Each of the cell lines was received from the American Type Culture
579 Collection (ATCC) and passaged twice before freezing. Cells were cultured in the presence or absence of
580 inhibitors and cell viability was assessed by comparing the ATP content in compound-treated wells with
581 that in DMSO-treated wells as previously described (11). […]
585 37°C humidified incubator as adherent semi-confluent monolayers in complete Dulbecco’s Modified Eagle
586 Media (c-DMEM). DMEM (Gibco™, Thermo Fisher Scientific, Australia) was supplemented with 10%

Turning to `Nc1ncnc2c1c(OC(F)F)nn2[C@@H]1O[C@H](COS(N)(=O)=O)[C@@H](O)[C@H]1O` [ML901], in test [1] (3D7 line under increasing compound concentrations over 4 months, versus parent), the “reduced sensitivity of selected parasites” value was 10 fold. The IC50 in test [1] (Plasmodium falciparum, 3D7, read-out: IC50_72h, ML901-selected resistant clones) stood at 28 nM; in test [2] (48 h incubation with stage V gametocytes), 130 ± 10 nM; in the test on P. falciparum Dd2, 2.2 ± 0.3 nM; in the test on H1650, 10700 nM. In test [2] (at 25 µM), the inhibition at 25 µM worked out at 99%.
